Assay results reported in patent publication US20110190324A1, “METHODS OF TREATING ATHEROSCLEROSIS” (priority 2008, published 2011).
“Also recorded” adds a separate entry of the source.

What was measured:
Format in all cases: cell-based, human
HIF-1α protein = HIF-1α protein accumulation, western blot; details: foam cells; for Antagonism of adenosine induced HIF-1α protein accumulation: hypoxia, adenosine 100 μM, antagonist 100 nM
Protocol: Hypoxic exposures were done in a modular incubator chamber and flushed with a gas mixture containing 1% O2, 5% CO2 and balance N2 (MiniGalaxy, RSBiotech, Irvine, Scotland).
U937 cells were induced to differentiate into macrophages by treatment with phorbol myristate acetate (PMA, 40 nM) for 72 h. […] All dialyses were carried out with Pierce Slide-A-Lyzer cassettes (10,000 molecular wheight cut-off).
Whole cell lysates were prepared as described previously (27). […] In experiments aimed to detect HIF, western blot analyses were performed using antibody against HIF-1a (1:250 dilution) and HIF-1β (1:1000 dilution) in 5% non-fat dry milk in PBS/0.1% Tween-20 overnight at 4° C. The protein concentration was determined using BCA protein assay kit (Pierce, Rockford, Ill.). Tubulin (1:250) was used to ensure equal protein loading. Immunoreactivity was assessed and quantified by using a VersaDoc Imaging System (Bio-Rad).

VEGF = VEGF secretion by U937 derived foam cells, ELISA; details: 24 h, hypoxia, adenosine 100 μM, antagonist 100 nM
Protocol: (§1) U937 cells were induced to differentiate into macrophages by treatment with phorbol myristate acetate (PMA, 40 nM) for 72 h. Before use oxLDL was dialyzed against 1 L of 0.15 M sodium chloride and 0.3 mM EDTA (pH 7.4) for 12 h at 4° C., then against RPMI 1640 medium (two changes, 1 L/each change) for 24 h. All dialyses were carried out with Pierce Slide-A-Lyzer cassettes (10,000 molecular wheight cut-off). After dialysis, lipoproteins were sterilized by passing them through a 0.45 μm (pore-size) filter, then added (50-100 μg/mL, Intracel, Frederick, Md.) to PMA-treated U937 cells and incubated in serum-free RPMI 1640 for 48 h.
(§2) The levels of VEGF and IL-8 protein secreted by the cells in the medium were determined by VEGF and IL-8 ELISA kits (R&D Systems) according to the manufacturer's instructions. The data were presented as mean±SD from three independent experiments.

IL-8 = IL-8 secretion by U937 derived foam cells, ELISA
Protocol: as §1, §2

[1] = system: foam cell formation from PMA-treated U937 cells; assay: Oil red O staining, foam cell formation; details: oxLDL 50 μg/mL; for Effect on oxLDL and adenosine induced foam cells formation: adenosine 100 μM
Protocol: as §1
Treatment of PMA-differentiated U937 cells with test agents was performed 2 h before addition of oxLDL. After exposition to oxLDL under hypoxia for 24 h, U937 cells were fixed in phosphate buffered saline-buffered 4% paraformaldehyde solution for 15 min and then air dried. Oil red O (in 60% isopropanol) staining was done for 15 min essentially as described previously by Kalayoglu and Byrne (Infect. Immun., 66: 5067-5072, 1998). Cells were viewed under a bright-field microscope in 100× fields using a Nikon's Eclipse E800 microscope. Foam cells were defined as macrophages in which cytoplasm was filled with Oil red O-stainable lipid droplets.

| Structure (SMILES) | Antagonism of adenosine induced HIF-1α protein accumulation (HIF-1α protein) | Reduction of adenosine induced VEGF increase (VEGF) | Effect on oxLDL and adenosine induced foam cells formation ([1]; antagonist 100 nM) | other results |
| --- | --- | --- | --- | --- |
| CCCn1c(=O)c2[nH]c(-c3cc(OCC(=O)Nc4ccc5c(c4)OCO5)nn3C)nc2n(CCC)c1=O [MRE-2029F20, N-benzo[1,3]dioxol-5-yl-2-[5-(1,3-dipropyl-2,6-dioxo-2,3,6,7-tetrahydro-1H-purin-8-yl)-1-methyl-1H-pyrazol-3-yl-oxy]-acetamide] | partially antagonized | strongly reduced | blocked the foam cells formation; also recorded: inhibition of foam cell formation | Block of the effect of the adenosine A2B receptor agonist (1 μM) on IL-8 secretion (IL-8): completely blocked; Block of adenosine induced IL-8 increase (IL-8; hypoxia, adenosine 100 μM, antagonist 100 nM): blocked |
| CCNC(=O)[C@H]1O[C@@H](n2cnc3c(Nc4ccc(OCC(=O)Nc5ccccc5)cc4)ncnc32)[C@H](O)[C@@H]1O [1-deoxy-1-[6-{4-[(phenylcarbamoyl)-methoxy]phenylamino}-9H-purin-9-yl]-N-ethyl-β-D-ribofuranuronamide] |  |  |  | Induction of HIF-1α protein by adenosine receptor agonists (HIF-1α protein; CHA 10, 100 nM, CGS 21680 500, 1000 nM, A2B agonist 10, 100 nM, CI-IB-MECA 10, 100 nM): able to induce HIF-1α protein |
| Nc1nc2c(cnn2CCc2ccccc2)c2nc(-c3ccco3)nn12 [SCH 58261] | partially antagonized | inhibited to lesser extent |  |  |
| COc1ccccc1NC(=O)Nc1nc(-c2cccnc2)nc2ccccc12 [VUF 5574] |  |  |  | Effect on oxLDL and adenosine induced foam cells formation ([1]; antagonist 10 nM): blocked the foam cells formation; also recorded: inhibition of foam cell formation |
| Nc1ncnc2c1ncn2[C@@H]1O[C@H](CO)[C@@H](O)[C@H]1O [adenosine] |  |  |  | Foam cells (Oil red O) on top of oxLDL ([1]; 24 h, 100 μM): increased |
| CCCn1cc2c(nc(NC(=O)Nc3ccc(OC)cc3)n3nc(-c4ccco4)nc23)n1 [MRE-3008F20, 5-[[(4-methoxyphenyl)amino]carbonyl]amino-8-propyl-2-(2-furyl)-pyrazolo[4,3-e]-1,2,4-triazolo[1,5-c]pyrimidine] | partially antagonized | strongly reduced | inhibition of foam cell formation; also recorded: blocked the foam cells formation |  |
